# “Also recorded” adds a separate entry of the source.
# Columns and labels:
# 20-HETE = test: Urinary excretion of 20-HETE in rats (fluorescent HPLC assay); format: in vivo, rat; settings: chronic treatment with HET0016 for 7 days, 1 mg/kg ip twice daily
# Description: The rats were divided in four groups. […] This dose was chosen based on our previous results (Kehl F et al., Am J Physiol Heart Circ Physiol 282: H1556-H1565, 2002).
# Measurement of urinary excretion of 20-HETE: On the last day of electrical stimulation, rats were placed in a metabolic cage that efficiently separates urine from food. Just before the start of the urine collection, food was withdrawn to avoid contamination of the urine sample, and the 24-h control and treated urine samples were collected into a glass bottle packed with ice. The concentration of 20-HETE in the urine samples was measured using a fluorescent HPLC assay, as previously described (Maier K G et al., Am J Physiol Heart Circ Physiol 279: H863-H871, 2000). […] Excess dye was removed using Sep-Pak Vac extraction (Maier K G et al., Am J Physiol Heart Circ Physiol 279: H863-H871, 2000), and the samples were dried under argon, resuspended in 100 μl of methanol, and analyzed by reverse-phase HPLC (Waters) using a fluorescence detector (model number L-7480; Hitachi, Naperville, Ill.). The amount of 20-HETE in the sample was determined by comparing the area of the 20-HETE peak with that of the internal standard.
# [1] = system: U251 human glioma cells spheroids; test: U251 spheroid-induced angiogenesis in the rat cornea pocket; format: in vivo; settings: 20 μg HET0016 pellet
# Experimental: (iii) U251 human glioma cells spheroids: U251 human glioma cells were generously provided by Dr. Stephen Brown (Dept. of Radiation Oncology, Henry Ford Health System, Detroit, Mich.). The cells were maintained in DMEM (Invitrogen) supplemented with 10% heat-inactivated fetal bovine serum, penicillin (10 IU/ml), streptomycin (10 μg/ml) and 10% non-essential amino acids and grown at 37° C. in a humidified incubator containing 5% CO2. U251 spheroids were obtained by a modification of the method of Carlsson and Yuhas (Carlsson J and Yuhas J M, Recent Results Cancer Res 1984, 95:1-23). […] Spheroid diameter was measured using a dissection microscope equipped with a ruler. […]
# (iv) Quantitation of corneal neovascularization: Seven days after pellet implantation, the rats were deeply anesthetized as previously described with ketamine and xylazine. […]
# Neovascularization was determined by comparing total vessel length in the control and experimental eyes. Vessel length was determined by tracing each vessel from the limbus to the pellet. Total length is the sum of these values in pixels and was determined using conventional image analysis software (Sigma Scan Pro, SPSS, Chicago, Ill.)
# For these experiments, we used the human glioblastoma cancer cell line U251, known to be angiogenic (Hsu S C et al., Cancer Res 1996, 56:5684-91). […] Angiogenic responses were assessed 14 days after implantation of the spheroids.
compound,measurement,setting,value
"CCCCc1ccc(N=CNO)c(C)c1 [HET0016, N-hydroxy-N′-(4-butyl-2 methylphenyl) formamidine]",reduction of 24-h urinary 20-HETE excretion compared with the control group (lecithin),20-HETE,36%
same,effect on corneal neovascularization induced by U251 spheroids,[1]; 2 weeks,significantly inhibited; also recorded: decreases angiogenesis
same,decrease of angiogenic responses to U251 spheroids,[1]; 14 days after implantation,approximately 70%
